Data taken from PMC10532956, “Age and Sex-Related Differences in Teicoplanine Isoform Concentrations in SARS-CoV-2 Patients” (Life, 2023).

Settings: male, human, in vivo, iv

For `CC(=O)N[C@H]1[C@H](O[C@@H]2c3ccc(c(Cl)c3)Oc3cc4cc(c3O)Oc3ccc(cc3Cl)C[C@H]3NC(=O)[C@H](N)c5ccc(O)c(c5)Oc5cc(O)cc(c5)[C@H](NC3=O)C(=O)N[C@H]4C(=O)N[C@H]3C(=O)N[C@@H]2C(=O)N[C@H](C(=O)O)c2cc(O)cc(O[C@H]4O[C@H](CO)[C@@H](O)[C@H](O)[C@@H]4O)c2-c2cc3ccc2O)O[C@H](CO)[C@@H](O)[C@@H]1O` [A3-1], the “isoform plasma concentration, median” value was 0.18 µg/mL.
